Laboratory results reported in PMC10693084, “Novel 8-Methoxycoumarin-3-Carboxamides with potent anticancer activity against liver cancer via targeting caspase-3/7 and β-tubulin polymerization” (BMC Chemistry, 2023).

Tests used:
[1] = tested on: human liver carcinoma HepG2 cells; test: MTT cytotoxicity assay against HepG2 cells; assay type: cell-based; conditions: for Structure–activity summary of cytotoxic activity (Fig. 4B) / IC50: HepG2 cells; for IC50: MTT, 24 h treatment
Experimental: To assess the antitumor properties of these compounds, we utilized the 3-(4,5-dimethylthiazol-2-yl)-2,5-diphenyl tetrazolium bromide (MTT) colorimetric assay, a widely used method to evaluate cell viability and cytotoxicity.
Following the incubation period, the cells were subjected to various concentrations of the prepared molecules and subsequently incubated for a duration of 24 h. […] Subsequently, a volume of 100 μL of dimethyl sulfoxide (DMSO) was introduced into each well in order to facilitate the dissolution of the purple formazan that had been generated. The quantification of the color intensity of the formazan product, which serves as an indicator of the cellular growth condition, is performed by employing an ELISA plate reader set at a wavelength of 570 nm. The experimental conditions were implemented with a minimum of three replicates, and the experiments were conducted on at least three separate occasions.

SMILES	melting point [°C]	Structure–activity summary of cytotoxic activity (Fig. 4B) [1]	IC50 [1] [µM]	IC50 ([1]; Homo sapiens, HepG2, 24 h) [µM]	HepG2-Cell Viability (%) ([1]; concentration LogC 0.19 (µM))	HepG2-Cell Viability (%) ([1]; concentration LogC 0.8 (µM))	HepG2-Cell Viability (%) ([1]; concentration LogC 1.4 (µM))	HepG2-Cell Viability (%) ([1]; concentration LogC 2 (µM))	HepG2-Cell Viability (%) ([1]; concentration LogC -0.41 (µM))
COc1cccc2cc(C(N)=O)c(=O)oc12 [Compound 4, 8-Methoxycoumarin-3-carboxamide]	253	moderate activity	17.2 ± 1.05	17	65.8±1.73	57.78±2.46	47.29±3.09	37.94±2.75	75.81±1.48
COc1ccc(Br)c2cc(C(=O)NC(C)=O)c(=O)oc12 [Compound 7, N-acetyl 5-bromo-8-methoxycoumarin-3-carboxamide]	220	improved activity	2.57 ± 0.16	2.3	68.52±2.36	60.52±2.64	53.19±2.87	45.03±3.1	77.18±1.73
COc1cccc2cc(C(=O)O)c(=O)oc12 [Compound 8, 8-methoxycoumarin-3-carboxylic acid]	186	moderate activity	5.18 ± 0.31	5	–	–	–	–	–

Now from value to compound, other results behind:

melting point [°C]	SMILES	Structure–activity summary of cytotoxic activity (Fig. 4B) [1]	IC50 [1] [µM]	IC50 ([1]; Homo sapiens, HepG2, 24 h) [µM]	HepG2-Cell Viability (%) ([1]; concentration LogC 0.19 (µM))	HepG2-Cell Viability (%) ([1]; concentration LogC 0.8 (µM))	HepG2-Cell Viability (%) ([1]; concentration LogC 1.4 (µM))	HepG2-Cell Viability (%) ([1]; concentration LogC 2 (µM))	HepG2-Cell Viability (%) ([1]; concentration LogC -0.41 (µM))
285	COc1cccc2cc(C(=O)NC(C)=O)c(=O)oc12 [Compound 6, N-acetyl 8-methoxycoumarin-3-carboxamide]	moderate activity	–	–	54.47±1.72	44.64±1.98	37.53±2.14	27.04±2.87	59.86±1.33
210	COc1ccc(Br)c2cc(C(=O)O)c(=O)oc12 [Compound 9, 5-Bromo-8-methoxycoumarin-3-carboxylic acid]	attenuated activity	41.6 ± 2.52	41	66.86±1.86	55.34±2.24	50.19±3.07	42.17±2.94	73.23±1.47
